24 molecules from patent US12466829B2, “Spirocyclic piperidine melanocortin subtype-2 receptor (MC2R) antagonists and uses thereof” (Crinetics Pharmaceuticals, Inc., priority 2019, dated 2025) can be followed below.

Bounds are passed on as bounds.

For this test, the target named is T1, hMC2 receptor (Homo sapiens, UniProt Q01718).
T1 construct: host or cells: CRE-bla-CHO-K1 cells
T1 sequence (Q01718 whole entry): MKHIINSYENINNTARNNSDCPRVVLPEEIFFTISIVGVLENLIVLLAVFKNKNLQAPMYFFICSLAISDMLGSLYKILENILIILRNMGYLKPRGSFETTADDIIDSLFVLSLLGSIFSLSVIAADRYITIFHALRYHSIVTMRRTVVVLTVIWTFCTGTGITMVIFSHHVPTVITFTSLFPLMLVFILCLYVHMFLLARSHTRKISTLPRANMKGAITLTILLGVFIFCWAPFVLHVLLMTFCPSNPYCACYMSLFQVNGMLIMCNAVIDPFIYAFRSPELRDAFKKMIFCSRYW
T1 sequence (Q8TCY5 whole entry partner): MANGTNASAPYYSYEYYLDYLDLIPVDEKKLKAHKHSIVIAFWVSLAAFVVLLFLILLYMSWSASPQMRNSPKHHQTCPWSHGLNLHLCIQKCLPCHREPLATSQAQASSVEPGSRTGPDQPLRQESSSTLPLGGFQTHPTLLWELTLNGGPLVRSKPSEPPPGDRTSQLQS
Put plainly: hMC2 membrane binding assay ([125I]ACTH (1-39) Tyr23, SPA). Particulars: crude membranes of CRE-bla-CHO-K1 cells expressing hMC2 receptor and hMRAP; 0.2 nM [125I]ACTH (1-39) Tyr23; 1.5 hours at room temperature; read-out: MC2R binding potency. The protocol:
Crude membrane fractions are prepared from CRE-bla-CHO-K1 cells stably expressing hMC2 receptor and hMRAP accessory protein (Thermo Fisher). The cells are grown to 85-100% confluence on standard tissue culture dishes in GlutaMax DMEM growth media (Gibco) with following additives: 10% dialyzed FBS (Gemini), 0.1 mM NEAA (Gibco), 25 mM HEPES (Gibco), 5 μg/mL blasticidin (Goldbio), 100 μg/mL zeocin (Invitrogen), 600 μg/mL hygromycin (Goldbio). To prepare membranes, cells are scraped and collected in 1× Dulbecco's phosphate buffered saline (Corning) and then pelleted at 1000 RPM's. The cell pellet is reconstituted in membrane preparation buffer (20 mM HEPES, 6 mM MgCl2 and 1 mM EGTA, protease inhibitor tablets (Pierce) adjusted to pH 7.4), homogenized using a dounce homogenizer, and the resulting membrane fraction is pelleted by centrifugation at 12,000 RPM's. The membrane pellet is resuspended in membrane preparation buffer, snap freezed and stored at −80° C. for later use.
The hMC2 membrane binding assay utilizes the following components: radiolabel [^125I]ACTH (1-39) Tyr23 (PerkinElmer), wheatgerm agglutinin coated PVT SPA beads (PerkinElmer), crude hMC2R membranes, and compounds. Briefly hMC2R membranes are incubated with SPA beads in binding assay buffer (50 mM HEPES, 5 mM MgCl2, 1 mM CaCl2), 0.2% BSA, protease inhibitor tablets (Pierce) adjusted to pH7.4) prior to assay initiation. […] Assay plates are read using a Top Count NXT and Ki values for compounds are determined using a GraphPad Prism 6 non-linear regression analysis.
In the case of `CCOc1ncccc1-c1ccc2c(c1)N(C(=O)CCN)CC21CCN(c2cc(C#N)cc(C(F)(F)F)c2)CC1` [1-8, 3-[1-(3-aminopropanoyl)-6-(2-ethoxypyridin-3-yl)-1,2-dihydrospiro[indole-3,4′-piperidin]-1′-yl]-5-(trifluoromethyl)benzonitrile], the Ki lay in the range of 1000 to 10000 nM.

As to `CCOc1ncccc1-c1ccc2c(n1)N(C(=O)CCNC)CC21CCN(c2ccc(C(F)(F)F)cc2C#N)CC1` [1-50, 2-[6′-(2-ethoxypyridin-3-yl)-1′-[3-(methylamino)propanoyl]-1′,2′-dihydrospiro[piperidine-4,3′-pyrrolo[2,3-b]pyridin]-1-yl]-5-(trifluoromethyl)benzonitrile], the Ki was less than 10 nM.

On to `CCOc1ncccc1-c1ccc2c(c1)N([C@@H](C)CN)CC21CCN(c2ccc(C(F)(F)F)cc2C#N)CC1` [1-41, 2-{1-[(2S)-1-aminopropan-2-yl]-6-(2-ethoxypyridin-3-yl)-1,2-dihydrospiro[indole-3,4′-piperidin]-1′-yl}-5-(trifluoromethyl)benzonitrile], for which the Ki lay in the range of 10 to 100 nM.

Take `CCOc1ncccc1-c1ccc2c(n1)N([C@@H]1CCNC1)CC21CCN(c2ccc(C(F)(F)F)cc2C#N)CC1` [1-52, 2-[6′-(2-ethoxypyridin-3-yl)-1′-[(3R)-pyrrolidin-3-yl]-1′,2′-dihydrospiro[piperidine-4,3′-pyrrolo[2,3-b]pyridin]-1-yl]-5-(trifluoromethyl)benzonitrile]: the Ki is less than 10 nM.

In the case of `CCOc1ncccc1-c1ccc2c(n1)N(C(=O)CCN)CC21CCN(c2ccc(C(F)(F)F)cc2C#N)CC1` [1-28, 2-[1′-(3-aminopropanoyl)-6′-(2-ethoxypyridin-3-yl)-1′,2′-dihydrospiro[piperidine-4,3′-pyrrolo[2,3-b]pyridin]-1-yl]-5-(trifluoromethyl)benzonitrile], the Ki was less than 10 nM.

As to `CCOc1ncccc1-c1ccc2c(c1)N(S(=O)(=O)CCN)CC21CCN(c2ccc(C(F)(F)F)cc2C#N)CC1` [1-37, 2-[1-(2-aminoethanesulfonyl)-6-(2-ethoxypyridin-3-yl)-1,2-dihydrospiro[indole-3,4′-piperidin]-1′-yl]-5-(trifluoromethyl)benzonitrile], the Ki was in the range of 10 to 100 nM.

For `CCOc1ncccc1-c1ccc2c(n1)N(C(=O)[C@@H](C)N)CC21CCN(c2ccc(C(F)(F)F)cc2C#N)CC1` [1-47, 2-{1′-[(2R)-2-aminopropanoyl]-6′-(2-ethoxypyridin-3-yl)-1′,2′-dihydrospiro[piperidine-4,3′-pyrrolo[2,3-b]pyridin]-1-yl}-5-(trifluoromethyl)benzonitrile], the Ki was in the range of 10 to 100 nM.

For `CCOc1ncccc1-c1ccc2c(c1)N(C[C@@H](C)N)CC21CCN(c2ccc(Cl)cc2C(F)F)CC1` [1-45, (2R)-1-{1′-[4-chloro-2-(difluoromethyl)phenyl]-6-(2-ethoxypyridin-3-yl)-1,2-dihydrospiro[indole-3,4′-piperidin]-1-yl}propan-2-amine], the Ki fell in the range of 10 to 100 nM.

`CCOc1ncccc1-c1ccc2c(c1)N(C(=O)[C@@H]1CCNC1)CC21CCN(c2ccc(C(F)(F)F)cc2C#N)CC1` [1-9, 2-[6-(2-ethoxypyridin-3-yl)-1-[(3R)-pyrrolidine-3-carbonyl]-1,2-dihydrospiro[indole-3,4′-piperidin]-1′-yl]-5-(trifluoromethyl)benzonitrile]: the Ki lay within 10 to 100 nM.

`CCOc1ncccc1-c1ccc2c(n1)N(C(=O)CCN(C)C)CC21CCN(c2ccc(C(F)(F)F)cc2C#N)CC1` [1-58, 2-{1′-[3-(dimethylamino)propanoyl]-6′-(2-ethoxypyridin-3-yl)-1′,2′-dihydrospiro[piperidine-4,3′-pyrrolo[2,3-b]pyridin]-1-yl}-5-(trifluoromethyl)benzonitrile]: the Ki is less than 10 nM.

As to `CCOc1ncccc1-c1ccc2c(n1)N(C[C@@H](C)N)C(=O)C21CCN(c2ccc(C(F)(F)F)cc2C#N)CC1` [1-61, 2-{1′-[(2R)-2-aminopropyl]-6′-(2-ethoxypyridin-3-yl)-2′-oxo-1′,2′-dihydrospiro[piperidine-4,3′-pyrrolo[2,3-b]pyridin]-1-yl}-5-(trifluoromethyl)benzonitrile], the Ki was less than 10 nM.

For `CCOc1ncccc1-c1ccc2c(n1)N(CCN(C)C)C(=O)C21CCN(c2ccc(C(F)(F)F)cc2C#N)CC1` [1-62, 2-{1′-[2-(dimethylamino)ethyl]-6′-(2-ethoxypyridin-3-yl)-2′-oxo-1′,2′-dihydrospiro[piperidine-4,3′-pyrrolo[2,3-b]pyridin]-1-yl}-5-(trifluoromethyl)benzonitrile], the Ki is less than 10 nM.

On to `CCOc1ncccc1-c1ccc2c(c1)N([C@H](C)CN)CC21CCN(c2ccc(C(F)(F)F)cc2C#N)CC1` [1-40, 2-{1-[(2R)-1-aminopropan-2-yl]-6-(2-ethoxypyridin-3-yl)-1,2-dihydrospiro[indole-3,4′-piperidin]-1′-yl}-5-(trifluoromethyl)benzonitrile], for which the Ki is less than 10 nM.

Turning to `CCOc1ncccc1-c1ccc2c(c1)N(C(=O)N[C@H]1CCNC1)CC21CCN(c2ccc(C(F)(F)F)cc2C#N)CC1` [1-33, 1′-[2-cyano-4-(trifluoromethyl)phenyl]-6-(2-ethoxypyridin-3-yl)-N-[(3S)-pyrrolidin-3-yl]-1,2-dihydrospiro[indole-3,4′-piperidine]-1-carboxamide], the Ki lay within 10 to 100 nM.

In the case of `CCOc1ncccc1-c1ccc2c(n1)N(C(=O)NC[C@H](C)N)CC21CCN(c2ccc(C(F)(F)F)cc2C#N)CC1` [1-56, N-[(2S)-2-aminopropyl]-1-[2-cyano-4-(trifluoromethyl)phenyl]-6′-(2-ethoxypyridin-3-yl)-1′,2′-dihydrospiro[piperidine-4,3′-pyrrolo[2,3-b]pyridine]-1′-carboxamide], the Ki lay within 10 to 100 nM.

In the case of `CCOc1ccc(N2CCC3(CC2)CN(C(=O)CCN)c2cc(-c4cccnc4OCC)ccc23)c(C#N)n1` [1-44, 3-[1-(3-aminopropanoyl)-6-(2-ethoxypyridin-3-yl)-1,2-dihydrospiro[indole-3,4′-piperidin]-1′-yl]-6-ethoxypyridine-2-carbonitrile], the Ki is 10 to 100 nM.

As for `CCOc1ncccc1-c1ccc2c(c1)N(C(=O)CCCN)CC21CCN(c2ccc(C(F)(F)F)cc2C#N)CC1` [1-11, 2-[1-(4-aminobutanoyl)-6-(2-ethoxypyridin-3-yl)-1,2-dihydrospiro[indole-3,4′-piperidin]-1′-yl]-5-(trifluoromethyl)benzonitrile], the Ki lay in the range of 10 to 100 nM.

With `CCOc1ncccc1-c1ccc2c(n1)N(CCN)C(=O)C21CCN(c2ccc(C(F)(F)F)cc2C#N)CC1` [1-60, 2-[1′-(2-aminoethyl)-6′-(2-ethoxypyridin-3-yl)-2′-oxo-1′,2′-dihydrospiro[piperidine-4,3′-pyrrolo[2,3-b]pyridin]-1-yl]-5-(trifluoromethyl)benzonitrile], the Ki was less than 10 nM.

`CCOc1ncccc1-c1ccc2c(c1)N(C(=O)NCCN)CC21CCN(c2ccc(C(F)(F)F)cc2C#N)CC1` [1-27, N-(2-aminoethyl)-1′-[2-cyano-4-(trifluoromethyl)phenyl]-6-(2-ethoxypyridin-3-yl)-1,2-dihydrospiro[indole-3,4′-piperidine]-1-carboxamide]: the Ki was 10 to 100 nM.

With `CCOc1ncccc1-c1ccc2c(n1)N(C[C@H](N)CO)CC21CCN(c2ccc(C(F)(F)F)cc2C#N)CC1` [1-51, 2-{1′-[(2S)-2-amino-3-hydroxypropyl]-6′-(2-ethoxypyridin-3-yl)-1′,2′-dihydrospiro[piperidine-4,3′-pyrrolo[2,3-b]pyridin]-1-yl}-5-(trifluoromethyl)benzonitrile], the Ki is less than 10 nM.

As to `CCOc1ncccc1-c1ccc2c(c1)N(C(=O)[C@H]1CCNC1)CC21CCN(c2ccc(C(F)(F)F)cc2C#N)CC1` [1-10, 2-[6-(2-ethoxypyridin-3-yl)-1-[(3S)-pyrrolidine-3-carbonyl]-1,2-dihydrospiro[indole-3,4′-piperidin]-1′-yl]-5-(trifluoromethyl)benzonitrile], the Ki was in the range of 10 to 100 nM.

As for `CCOc1ccc(N2CCC3(CC2)CN(C(=O)CCN)c2cc(-c4cccnc4OCC)ccc23)c(C(F)(F)F)n1` [1-23, 3-amino-1-{1′-[6-ethoxy-2-(trifluoromethyl)pyridin-3-yl]-6-(2-ethoxypyridin-3-yl)-1,2-dihydrospiro[indole-3,4′-piperidin]-1-yl}propan-1-one], the Ki lay in the range of 10 to 100 nM.

For `CCOc1ncccc1-c1ccc2c(n1)N(C(=O)NCCNC)CC21CCN(c2ccc(C(F)(F)F)cc2C#N)CC1` [1-59, 1-[2-cyano-4-(trifluoromethyl)phenyl]-6′-(2-ethoxypyridin-3-yl)-N-[2-(methylamino)ethyl]-1′,2′-dihydrospiro[piperidine-4,3′-pyrrolo[2,3-b]pyridine]-1′-carboxamide], the Ki is less than 10 nM.

Regarding `CCOc1ncccc1-c1ccc2c(n1)N(C(=O)NCCN)CC21CCN(c2ccc(C(F)(F)F)cc2C#N)CC1` [1-55, N-(2-aminoethyl)-1-[2-cyano-4-(trifluoromethyl)phenyl]-6′-(2-ethoxypyridin-3-yl)-1′,2′-dihydrospiro[piperidine-4,3′-pyrrolo[2,3-b]pyridine]-1′-carboxamide], the Ki was less than 10 nM.
